# Read-outs that look alike come from different tables or passages of the source.
# Tests used:
# SETD2(1434-1711) = target: T1, SETD2(1434-1711) (Homo sapiens, UniProt Q9BYW2); assay: SETD2 (1434-1711) assay; type: biochemical; settings: read-out: SETD2 (1434-1711)
# T1 construct: SETD2 (1434-1711) Assay; catalogue N/A
# T1 sequence (Q9BYW2 1434-1711): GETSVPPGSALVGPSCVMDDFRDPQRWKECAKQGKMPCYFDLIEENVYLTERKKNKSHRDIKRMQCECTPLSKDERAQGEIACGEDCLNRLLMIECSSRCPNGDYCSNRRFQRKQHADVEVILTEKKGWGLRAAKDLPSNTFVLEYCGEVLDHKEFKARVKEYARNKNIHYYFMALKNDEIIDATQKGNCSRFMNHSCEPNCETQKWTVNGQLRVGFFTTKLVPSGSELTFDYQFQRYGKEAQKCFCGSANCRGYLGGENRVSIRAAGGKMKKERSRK
# H3K36me3 in A549 cells = assay: In-Cell Western (ICW) assay of SETD2 inhibitors (A549 assay); type: cell-based, human; settings: A549 cells, read-out: SETD2 A549
# Summary of the method: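 H3K36me3 In-Cell Western: cells exposed to compound for 3 days at 4,000 cells/well, 37° C. DRAQ5 (1:1000) marked cell number, with 700/800-channel Licor read-out.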
IC50 (SETD2(1434-1711)),IC50 (H3K36me3 in A549 cells; Homo sapiens),IC50 (H3K36me3 in A549 cells),SMILES
8800 nM,> 2000 nM,,Cc1ccc(F)c2cc(C(=O)N[C@@H]3CCC[C@@H](N4CCN(C5CCOC5)CC4)C3)[nH]c12 (stereo partly drawn) [compound 925]
20 nM,,100 nM,CC(=O)N1C2CCC1CN(C1CCCC(NC(=O)c3cc4c(F)ccc(C)c4[nH]3)C1)C2 (stereo not drawn) [compound 926]
1700 nM,,> 2000 nM,CC(=O)N1C2CCC1CN(C1CCCC(NC(=O)c3cc4c(F)ccc(C)c4[nH]3)C1)C2 (stereo not drawn) [compound 927]
30 nM,900 nM,,Cc1ccc(F)c2cc(C(=O)N[C@@H]3CCC[C@H](N4CCC5(CC4)CNC(=O)C5)C3)[nH]c12 [compound 928]
1700 nM,> 2000 nM,,Cc1ccc(F)c2cc(C(=O)N[C@@H]3CCC[C@@H](N4CCC5(CC4)CNC(=O)C5)C3)[nH]c12 [compound 929]
4 nM,10 nM,,CC(=O)N1CCN([C@H]2CCC[C@@H](NC(=O)c3cc4c(F)ccc(C)c4[nH]3)C2)C[C@H]1C [compound 930]
1100 nM,> 2000 nM,,CC(=O)N1CCN([C@@H]2CCC[C@@H](NC(=O)c3cc4c(F)ccc(C)c4[nH]3)C2)C[C@H]1C [compound 931]
700 nM,> 2000 nM,,Cc1ccc(F)c2cc(C(=O)N[C@@H]3CCC[C@@H](N4CCNC(=O)CC4)C3)[nH]c12 [compound 933]
10 nM,100 nM,,Cc1ccc(F)c2cc(C(=O)N[C@@H]3CCC[C@H](N4CCC(N(C)C(=O)CO)C4)C3)[nH]c12 (stereo partly drawn) [compound 934]
1900 nM,> 2000 nM,,Cc1ccc(F)c2cc(C(=O)N[C@@H]3CCC[C@@H](N4CCC(N(C)C(=O)CO)C4)C3)[nH]c12 (stereo partly drawn) [compound 935]
100 nM,500 nM,,CC(=O)N1CC2CC1CN2[C@H]1CCC[C@@H](NC(=O)c2cc3c(F)ccc(C)c3[nH]2)C1 (stereo partly drawn) [compound 936]
6800 nM,,> 2000 nM,CC(=O)N1CC2CC1CN2C1CCCC(NC(=O)c2cc3c(F)ccc(C)c3[nH]2)C1 (stereo not drawn) [compound 937]
30 nM,500 nM,,Cc1ccc(F)c2cc(C(=O)N[C@@H]3CCC[C@H](N4CCC5(CCC(=O)N5)CC4)C3)[nH]c12 [compound 938]
500 nM,> 2000 nM,,Cc1ccc(F)c2cc(C(=O)N[C@@H]3CCC[C@@H](N4CCC5(CCC(=O)N5)CC4)C3)[nH]c12 [compound 939]
20 nM,> 2000 nM,,Cc1ccc(F)c2cc(C(=O)N[C@@H]3CCC[C@H](N4CCC5(CC4)CNC(=O)N5)C3)[nH]c12 [compound 940]
1300 nM,> 2000 nM,,Cc1ccc(F)c2cc(C(=O)N[C@@H]3CCC[C@@H](N4CCC5(CC4)CNC(=O)N5)C3)[nH]c12 [compound 941]
30 nM,,100 nM,Cc1ccc(F)c2cc(C(=O)NC3CCCC(N4CCC(=O)N(C)CC4)C3)[nH]c12 (stereo not drawn) [compound 944]
100 nM,,> 2000 nM,Cc1ccc(F)c2cc(C(=O)N[C@@H]3CCC[C@@H](N4CCC(=O)N(C)CC4)C3)[nH]c12 [compound 945]
20 nM,,100 nM,Cc1ccc(F)c2cc(C(=O)NC3CCCC(N4CCC(N(C)C(=O)C5COC5)C4)C3)[nH]c12 (stereo not drawn) [compound 946]
5500 nM,,> 2000 nM,Cc1ccc(F)c2cc(C(=O)NC3CCCC(N4CCC(N(C)C(=O)C5COC5)C4)C3)[nH]c12 (stereo not drawn) [compound 947]
10 nM,,100 nM,CCNC(=O)N1CCN(C2CCCC(NC(=O)c3cc4c(F)ccc(C)c4[nH]3)C2)CC1 (stereo not drawn) [compound 948]
700 nM,,> 2000 nM,CCNC(=O)N1CCN(C2CCCC(NC(=O)c3cc4c(F)ccc(C)c4[nH]3)C2)CC1 (stereo not drawn) [compound 949]
400 nM,,> 2000 nM,CC(=O)N1CCC12CN(C1CCCC(NC(=O)c3cc4c(F)ccc(C)c4[nH]3)C1)C2 (stereo not drawn) [compound 950]
7000 nM,,> 2000 nM,CC(=O)N1CCC12CN(C1CCCC(NC(=O)c3cc4c(F)ccc(C)c4[nH]3)C1)C2 (stereo not drawn) [compound 951]
